Reference: US20230331803A1, “CO-AGONISTS OF THE GLP-1 AND AMYLIN RECEPTORS” (priority 2020, published 2023)
Read-outs that look alike come from different tables or passages of the source. One block for each molecule: values may come before it. Starred links: 1 amine or outer side, 2 acyl side, 3 side chain; linkers in the order of their positions; H or OH if unused. Non-standard residues stand in square brackets, D forms with d. Groups on a side chain read outwards from the residue. *: point of attachment. C20 diacid = O=C(O)CCCCCCCCCCCCCCCCCCC(=O)*; C18 diacid = O=C(O)CCCCCCCCCCCCCCCCC(=O)*; C16 diacid = O=C(O)CCCCCCCCCCCCCCC(=O)*; γGlu = O=C(O)[C@H](CCC(=O)[*:2])N[*:1]; εLys = N[C@@H](CCCCN[*:1])C(=O)[*:2]; Trx = NC[C@H]1CC[C@H](C(=O)O)CC1; AEEA = NCCOCCOCC(=O)O; Aib = CC(C)(N)C(=O)O

Columns and labels:
[1] = Pharmacokinetic studies in Beagle dogs after oral administration of SNAC-based tablets; assay type: in vivo; details: dog, in vivo, po; for T½ / Tmax / half-life: male, Beagle; for half-life: T½ (hr)
Procedure, shortened: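 Fasted male Beagle dogs received immediate-release oral tablets containing 3–4 mg test substance with 100–300 mg SNAC, optionally after ~3 nmol/kg s.c. SEQ ID NO: 237 10 min before. EDTA plasma sampled up to 240 h; LCMS concentrations analysed non-compartmentally.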

Sprague Dawley (SD) rats = assay: Acute food intake in ad libitum fed rats after a single subcutaneous administration; assay type: in vivo, rat; details: for Food intake relative to vehicle (%) 0-24 hr, 10 nmol/kg / Food intake relative to vehicle (%) 24-48 hr, 10 nmol/kg: rat, single administration;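 for all read-outs here: food intake monitored in the HM2 system, three rats per cage kept on a reversed light cycle, with food and water freely available after the subcutaneous dose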
Description: Sprague Dawley (SD) rats from Taconic Europe, Denmark were used for the acute food intake experiments, wherein the principles of laboratory animal care were followed.
The rats arrived at least 10-14 days before the start of the experiment to allow acclimatisation to experimental settings. During this period, the animals were handled at least 2 times. Immediately upon arrival, rats were put on a reversed light cycle (dark from 11am - 11pm) and put in the HM2 system and ID chipped. Three rats were housed in each cage. […] The rats were dosed once according to body weight with a 0.01-3 mg/kg solution administered subcutaneously (sc). The time of dosing was recorded for each group.
After dosing, the rats were returned to their home cages, where they had access to food and water. […] At the end of the experimental session, the animals were euthanised.

human GLP-1 receptor = target: T1, human GLP-1 receptor (Homo sapiens, UniProt P43220); assay: Human GLP-1 receptor in vitro potency assay (CRE-luciferase reporter, BHK cells); assay type: cell-based; details: for EC50: Table 4a, BHK cells expressing human GLP-1R, CRE-Luc, 3 hours, read-out: Human GLP-1R potency [EC50 (pM)]; for Ability to agonise the GLP-1 receptor, in words: Tables 4a-4c
T1 construct: expressed in transfected cells; host or cells: BHK (Baby Hamster Kidney) cells, clone BHK 467-12A KZ-10, stably transfected, with CRE-luciferase reporter
Protocol: It is thus possible to measure GLP-1 receptor activity using a CRE-luciferase reporter gene introduced into Baby Hamster Kidney (BHK) cells co-expressing the GLP-1 receptor.
Cells were aliquoted and stored at -180° C. until use.
Plates were sealed and incubated at room temperature with gentle shaking for 30 minutes while protected from light. Luminescence was detected on a luminescence plate reader e.g. a Synergy 2 (BioTek).

[2] = target: T2, human amylin receptor (hAmyR3) (Homo sapiens, UniProt O60896+P30988); assay: Human amylin receptor in vitro potency assay (CRE-luciferase reporter, BHK cells); assay type: cell-based; details: for EC50: Table 4a, BHK hAmyR3/CRE-Luc cells, 3 hours, read-out: Human AmyR3 potency [EC50 (pM)]; for Ability to agonise the amylin receptor, in words: Tables 4a-4c;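 for all read-outs here: BHK cells expressing human calcitonin receptor plus RAMP3 (amylin-3 receptor) with a CRE-luciferase reporter, agonist activity read as luminescence from cAMP-driven transcription, 7-point serial dilutions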
T2 construct: host or cells: BHK cells (Hollex-1 line: human calcitonin receptor (a) + CRE-Luc), further transfected with human RAMP3

[3] = endogenous hormone; cited from earlier work
[4] = measured in humans (Meier et al., Diabetes, 2004); cited from earlier work
[5] = target: T3, human amylin receptor (hAmyR3) (Homo sapiens, UniProt O60896+P30988); assay: Human amylin receptor in vitro potency assay (CRE-luciferase reporter, BHK cells); assay type: cell-based; details: Tables 4a-4c;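 note: BHK cells expressing human calcitonin receptor plus RAMP3 (amylin-3 receptor) with a CRE-luciferase reporter, agonist activity read as luminescence from cAMP-driven transcription, 7-point serial dilutions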
T3 construct: host or cells: BHK cells (Hollex-1 line: human calcitonin receptor (a) + CRE-Luc), further transfected with human RAMP3
T3 sequence (O60896 whole entry, looked up): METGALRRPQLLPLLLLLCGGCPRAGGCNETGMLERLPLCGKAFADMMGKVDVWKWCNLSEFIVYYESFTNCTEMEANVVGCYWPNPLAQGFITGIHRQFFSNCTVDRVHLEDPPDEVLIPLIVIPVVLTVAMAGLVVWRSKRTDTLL
T3 sequence (P30988 whole entry, looked up): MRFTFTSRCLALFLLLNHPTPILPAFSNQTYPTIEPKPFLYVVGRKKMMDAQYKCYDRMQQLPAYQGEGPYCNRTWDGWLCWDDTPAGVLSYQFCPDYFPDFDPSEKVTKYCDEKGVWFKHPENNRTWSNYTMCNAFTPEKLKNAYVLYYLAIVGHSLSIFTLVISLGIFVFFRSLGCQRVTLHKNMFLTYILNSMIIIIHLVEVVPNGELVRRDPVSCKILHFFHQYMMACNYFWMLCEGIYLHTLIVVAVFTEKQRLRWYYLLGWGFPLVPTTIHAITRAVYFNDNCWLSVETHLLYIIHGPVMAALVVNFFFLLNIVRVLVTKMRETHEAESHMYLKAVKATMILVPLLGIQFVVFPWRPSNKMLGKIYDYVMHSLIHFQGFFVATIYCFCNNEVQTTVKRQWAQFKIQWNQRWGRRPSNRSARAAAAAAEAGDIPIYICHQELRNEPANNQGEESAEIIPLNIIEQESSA

T1 sequence (P43220 24-463): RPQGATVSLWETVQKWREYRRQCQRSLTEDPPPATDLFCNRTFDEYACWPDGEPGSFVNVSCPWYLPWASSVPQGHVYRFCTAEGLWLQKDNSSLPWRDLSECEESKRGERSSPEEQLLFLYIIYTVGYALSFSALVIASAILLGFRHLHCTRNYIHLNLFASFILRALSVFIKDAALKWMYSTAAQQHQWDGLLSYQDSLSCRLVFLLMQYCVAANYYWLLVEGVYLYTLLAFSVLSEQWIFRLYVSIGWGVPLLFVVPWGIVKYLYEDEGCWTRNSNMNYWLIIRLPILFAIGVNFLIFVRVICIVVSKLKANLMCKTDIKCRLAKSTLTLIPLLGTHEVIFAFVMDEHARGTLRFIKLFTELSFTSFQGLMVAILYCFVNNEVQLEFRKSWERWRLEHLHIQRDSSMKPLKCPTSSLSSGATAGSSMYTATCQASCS

Molecule: H-H[Aib]EGTFTSDVSRYLEEQAAREFIEWLVRGRK([AEEA-AEEA-γGlu-Trx-C20 diacid])GGGGEASELSTAALGRLSAELHELATLPRTETGSGSP-NH2 [Compound 0511]
AUC/D [1]: 3.80 kg·h/L
Cmax/D [1]: 0.14 kg/L
Tmax ([1]; Tmax (hr)): 2 h
half-life [1]: 25 h
Food intake relative to vehicle (%) 0-24 hr, 10 nmol/kg (Sprague Dawley (SD) rats; Table 6a): 61%
Food intake relative to vehicle (%) 24-48 hr, 10 nmol/kg (Sprague Dawley (SD) rats; Table 6a): 75%
EC50 (human GLP-1 receptor): 8.8 pM
EC50 [2]: 8.4 pM

Molecule: H-H[Aib]EGTFTSDVSSYLEEQAAREFIAWLVRGRK([AEEA-AEEA-γGlu-C20 diacid])GGGGEASELSTAALGRLSAELHELATLPRTETGSGSP-NH2 [Compound 0502]
Tmax [1]: 4.0 h
Tmax ([1]; Tmax (hr)): 2 h
half-life [1]: 66 h
Food intake relative to vehicle (%) 0-24 hr, 10 nmol/kg (Sprague Dawley (SD) rats; Table 6a): 61%
Food intake relative to vehicle (%) 24-48 hr, 10 nmol/kg (Sprague Dawley (SD) rats; Table 6a): 72%
EC50 (human GLP-1 receptor): 8.4 pM
EC50 [2]: 9 pM

Molecule: H-H[Aib]EGTFTSDVSSYLEEQAAREFIAWLVRGRK([AEEA-AEEA-γGlu-Trx-C20 diacid])GGGGEASELSTAALGRLSAELHELATLPRTETGSGSP-NH2 [Compound 0120]
T½ [1]: 22 h
half-life [1]: 24 h
Food intake relative to vehicle (%) 0-24 hr, 10 nmol/kg (Sprague Dawley (SD) rats; Table 6a): 53%
Food intake relative to vehicle (%) 24-48 hr, 10 nmol/kg (Sprague Dawley (SD) rats; Table 6a): 55%
Food intake relative to vehicle (%) 0-24 hr, 10 nmol/kg (Sprague Dawley (SD) rats; Table 6b): 53%
Food intake relative to vehicle (%) 24-48 hr, 10 nmol/kg (Sprague Dawley (SD) rats; Table 6b): 55%
Inhibition of food intake, in words (Sprague Dawley (SD) rats; rats, 10 nmol/kg): significant inhibition of food intake within the first 48 hours
EC50 (human GLP-1 receptor): 9.1 pM
Ability to agonise the GLP-1 receptor, in words (human GLP-1 receptor): fully potent on both receptors
EC50 [2]: 10.6 pM
Ability to agonise the amylin receptor, in words [2]: fully potent on both receptors

Molecule: H-H[Aib]EGTFTSDVSSYLEEQAAREFIAWLVRGRK([εLys-AEEA-AEEA-γGlu-C20 diacid])GGGGEASELSTAALGRLSAELHELATLPRTETGSGSP-NH2 [Compound 0552]
AUC/D [1]: 8.58 kg·h/L
Cmax/D [1]: 0.22 kg/L
Tmax ([1]; Tmax (hr)): 1 h
half-life [1]: 52 h
Food intake relative to vehicle (%) 0-24 hr, 10 nmol/kg (Sprague Dawley (SD) rats; Table 6a): 56%
Food intake relative to vehicle (%) 24-48 hr, 10 nmol/kg (Sprague Dawley (SD) rats; Table 6a): 55%
EC50 (human GLP-1 receptor): 4.7 pM
EC50 [2]: 6.9 pM

Molecule: H-H[Aib]EGTFTSDVSSYLEEQAARK([εLys-AEEA-AEEA-γGlu-Trx-C20 diacid])FIEWLVRGRGEASELSTAALGRLSAELHELATLPRTETGSGSP-NH2 [Compound 0439]
AUC/D [1]: 5.36 kg·h/L
Cmax/D [1]: 0.21 kg/L
Tmax ([1]; Tmax (hr)): 2 h
half-life [1]: 24 h
Food intake relative to vehicle (%) 0-24 hr, 10 nmol/kg (Sprague Dawley (SD) rats; Table 6a): 43%
Food intake relative to vehicle (%) 24-48 hr, 10 nmol/kg (Sprague Dawley (SD) rats; Table 6a): 41%
EC50 (human GLP-1 receptor): 8.3 pM
EC50 [2]: 10.7 pM

Molecule: H-H[Aib]EGTFTSDVSSYLEGQAAKEFIAWLVRGRK([εLys-AEEA-AEEA-γGlu-C18 diacid])GGEASELSTAALGRLSAELHELATLPRTETGSGSP-NH2 [Compound 0045]
AUC/D [1]: 10.90 kg·h/L
Cmax/D [1]: 0.27 kg/L
Tmax ([1]; Tmax (hr)): 1.3 h
half-life [1]: 41 h
Food intake relative to vehicle (%) 0-24 hr, 10 nmol/kg (Sprague Dawley (SD) rats; Table 6a): 46%
Food intake relative to vehicle (%) 24-48 hr, 10 nmol/kg (Sprague Dawley (SD) rats; Table 6a): 80%
EC50 (human GLP-1 receptor): 19.4 pM
EC50 [2]: 25.9 pM

Molecule: human amylin (KCNTATCATQRLANFLVHSSNNFGAILSSTNVGSNTY; Islet amyloid polypeptide; UniProt P10997 34-70, looked up) [37-amino acid long polypeptide hormone co-secreted with insulin from the pancreatic beta-cell]
half-life [3]: 0.25 to 0.333 h
half-life [4]: 0.25 to 0.333 h

B1: H-Aib-EGTFTSDVSSYLEGQAA-K([2-[2-[2-[[2-[2-[2-[[(4S)-4-Carboxy-4-(17-Carboxyheptadecanoylamino)Butanoyl]Amino]Ethoxy]Ethoxy]Acetyl]Amino]Ethoxy]Ethoxy]Acetyl])-EFIAWLVRGRGGQEPGQEP-K([2-[2-[2-[[2-[2-[2- … (peptide)
peptide: H[Aib]EGTFTSDVSSYLEGQAAK([AEEA-AEEA-γGlu-C18 diacid])EFIAWLVRGRGGQEPGQEPK([AEEA-AEEA-γGlu-C18 diacid])CNTATCATQRLAEFLRHSSNNFGPILPPTNVGSNTP-NH2
modifications: ends and bridges not checked
Ability to agonise the amylin receptor, in words [5]: do not activate the amylin receptor

Continued, in another order:

T½ [1]: 103 h
Tmax ([1]; Tmax (hr)): 2 h
half-life [1]: 99 h
EC50 (human GLP-1 receptor): 3.3 pM
EC50 [2]: 8.9 pM
Molecule: H-H[Aib]EGTFTSDVSK([AEEA-AEEA-γGlu-C16 diacid])YLEEQAARK([AEEA-AEEA-γGlu-C16 diacid])FIAWLVRGRGGGGGEASELSTAALGRLSAELHELATLPRTETGSGSP-NH2 [Compound 0516]
Food intake relative to vehicle (%) 0-24 hr, 10 nmol/kg (Sprague Dawley (SD) rats; Table 6a): 87%
Food intake relative to vehicle (%) 24-48 hr, 10 nmol/kg (Sprague Dawley (SD) rats; Table 6a): 82%

AUC/D [1]: 7.57 kg·h/L
Cmax/D [1]: 0.37 kg/L
Tmax ([1]; Tmax (hr)): 1.5 h
half-life [1]: 29 h
EC50 (human GLP-1 receptor): 2.3 pM
EC50 [2]: 6 pM
Molecule: H-H[Aib]EGTFTSDVSK([AEEA-AEEA-γGlu-C18 diacid])YLEEQAAREFIAWLVRGRGGGGGEASELSTAALGRLSAELHELATLPRTETGSGSP-NH2 [Compound 0640]
Food intake relative to vehicle (%) 0-24 hr, 10 nmol/kg (Sprague Dawley (SD) rats; Table 6a): 28%
Food intake relative to vehicle (%) 24-48 hr, 10 nmol/kg (Sprague Dawley (SD) rats; Table 6a): 66%

Tmax [1]: 2.0 h
T½ [1]: 42 h
Tmax ([1]; Tmax (hr)): 1.5 h
half-life [1]: 44 h
EC50 (human GLP-1 receptor): 3 pM
Ability to agonise the GLP-1 receptor, in words (human GLP-1 receptor): retained full potency on both receptors
EC50 [2]: 11.5 pM
Ability to agonise the amylin receptor, in words [2]: retained full potency on both receptors
Molecule: H-H[Aib]EGTFTSDVSSYLEEQAAREFIAWLVRGRK([AEEA-AEEA-γGlu-C18 diacid])GGGGEASELSTAALGRLSAELHELATLPRTETGSGSP-NH2 [Compound 0111]
Food intake relative to vehicle (%) 0-24 hr, 10 nmol/kg (Sprague Dawley (SD) rats; Table 6a): 28%
Food intake relative to vehicle (%) 24-48 hr, 10 nmol/kg (Sprague Dawley (SD) rats; Table 6a): 75%

AUC/D [1]: 15.16 kg·h/L
Cmax/D [1]: 0.36 kg/L
Tmax ([1]; Tmax (hr)): 1.5 h
half-life [1]: 47 h
EC50 (human GLP-1 receptor): 2.5 pM
EC50 [2]: 14 pM
Molecule: H-H[Aib]EGTFTSDVSSYLEGQAAREFIAWLVRGRGQEPK([AEEA-AEEA-γGlu-C18 diacid])GQAPEASELSTAALGRLSAELHELATLPRTETGSGSP-NH2 [Compound 0084]
Food intake relative to vehicle (%) 0-24 hr, 10 nmol/kg (Sprague Dawley (SD) rats; Table 6a): 44%
Food intake relative to vehicle (%) 24-48 hr, 10 nmol/kg (Sprague Dawley (SD) rats; Table 6a): 50%
